In ChEMBL document CHEMBL5360648, “Identification of 5-HT2 Serotonin Receptor Modulators through the Synthesis of a Diverse, Tropane- and Quinuclidine-alkaloid-Inspired Compound Library” (J Med Chem, 2023):

Columns and labels:
[1] = target: T1, 5-hydroxytryptamine receptor 2A (Homo sapiens, UniProt P28223); experiment: Antagonist activity at 5-HT2A receptor in HEK293 cells assessed as calcium mobilisation by Fluo-4 dye based assay; type: functional, cell-based
[2] = target: T2, 5-hydroxytryptamine receptor 2C (Homo sapiens, UniProt P28335); experiment: Antagonist activity at 5-HT2C receptor in HEK293 cells assessed as calcium mobilisation by Fluo-4 dye based assay; type: functional, cell-based
T2 sequence (P28335 whole entry): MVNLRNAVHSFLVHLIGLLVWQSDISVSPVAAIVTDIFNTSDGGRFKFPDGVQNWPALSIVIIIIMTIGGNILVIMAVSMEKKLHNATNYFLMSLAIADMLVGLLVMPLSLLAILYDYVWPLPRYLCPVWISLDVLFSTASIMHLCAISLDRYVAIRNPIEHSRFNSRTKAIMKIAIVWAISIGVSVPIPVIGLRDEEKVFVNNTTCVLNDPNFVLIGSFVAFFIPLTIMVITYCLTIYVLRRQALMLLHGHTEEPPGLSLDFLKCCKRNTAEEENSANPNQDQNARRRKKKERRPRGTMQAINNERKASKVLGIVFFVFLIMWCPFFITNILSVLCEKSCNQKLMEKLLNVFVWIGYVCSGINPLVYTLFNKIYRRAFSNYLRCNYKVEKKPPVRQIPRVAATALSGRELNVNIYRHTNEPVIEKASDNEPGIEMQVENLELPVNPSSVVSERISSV

[3] = target: T1, 5-hydroxytryptamine receptor 2A; experiment: Agonist activity at 5-HT2A receptor in HEK293 cells assessed as calcium mobilisation by Fluo-4 dye based assay
[4] = target: Neuronal acetylcholine receptor; alpha3/beta4 (Rattus norvegicus) (UniProt P04757+P12392); experiment: Inhibition of [3H]epibatidine from binding to rat nACh receptor alpha3beta4 expressed in HEK293 cell membrane at 10 uM incubated for 2.5 hrs by liquid scintillation counting analysis relative to control; type: cell membranes
[5] = target: Neuronal acetylcholine receptor; alpha4/beta2 (Homo sapiens) (UniProt P17787+P43681); experiment: Inhibition of [3H]epibatidine from binding to human nACh receptor alpha4beta2 expressed in HEK293 cell membrane at 10 uM incubated for 2.5 hrs by liquid scintillation counting analysis relative to control; type: cell membranes
[6] = target: 5-hydroxytryptamine receptor 7 (Homo sapiens) (UniProt P34969); experiment: Inhibition of [3H]LSD from binding to 5-HT7 receptor (unknown origin) at 10 uM relative to control
[7] = target: T3, Muscarinic acetylcholine receptor M2 (Homo sapiens) (UniProt P08172); experiment: Inhibition of [3H]AF-DX384 from binding to M2 receptor (unknown origin) at 10 uM relative to control
T3 sequence (whole entry): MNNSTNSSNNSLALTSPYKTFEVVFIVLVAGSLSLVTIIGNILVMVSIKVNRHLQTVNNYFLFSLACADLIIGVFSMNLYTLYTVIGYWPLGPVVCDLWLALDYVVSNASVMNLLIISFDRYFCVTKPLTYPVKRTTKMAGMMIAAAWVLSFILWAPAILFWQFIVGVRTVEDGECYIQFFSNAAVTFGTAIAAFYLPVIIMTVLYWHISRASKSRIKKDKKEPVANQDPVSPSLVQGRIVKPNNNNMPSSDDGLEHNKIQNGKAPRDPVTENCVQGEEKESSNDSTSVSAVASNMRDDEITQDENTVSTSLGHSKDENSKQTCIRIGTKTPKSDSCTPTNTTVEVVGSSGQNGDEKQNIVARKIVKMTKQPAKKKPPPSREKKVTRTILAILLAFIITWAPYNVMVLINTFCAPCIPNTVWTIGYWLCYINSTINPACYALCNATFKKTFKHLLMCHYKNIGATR

Homo sapiens = organism: Homo sapiens; experiment: Inhibition of [3H]BRL43694 from binding to 5-HT3 receptor (unknown origin) at 10 uM relative to control
[8] = target: T4, 5-hydroxytryptamine receptor 1A (Homo sapiens) (UniProt P08908); experiment: Inhibition of [3H]-8-OH-DPAT from binding to 5-HT1A receptor (unknown origin) at 10 uM relative to control
T4 sequence (whole entry): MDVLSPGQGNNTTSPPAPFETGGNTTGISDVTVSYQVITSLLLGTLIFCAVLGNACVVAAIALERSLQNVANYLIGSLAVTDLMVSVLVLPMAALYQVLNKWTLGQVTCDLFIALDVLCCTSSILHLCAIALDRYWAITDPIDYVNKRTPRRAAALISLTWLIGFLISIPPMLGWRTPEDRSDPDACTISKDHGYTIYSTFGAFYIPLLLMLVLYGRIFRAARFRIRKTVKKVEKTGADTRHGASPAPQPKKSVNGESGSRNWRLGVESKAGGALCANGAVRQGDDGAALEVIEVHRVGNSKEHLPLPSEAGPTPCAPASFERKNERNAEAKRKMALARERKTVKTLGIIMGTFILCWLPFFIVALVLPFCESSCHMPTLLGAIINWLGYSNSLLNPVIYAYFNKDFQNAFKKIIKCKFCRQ

[9] = target: T5, Muscarinic acetylcholine receptor M5 (Homo sapiens) (UniProt P08912); experiment: Inhibition of [3H]4-DAMP from binding to M5 receptor (unknown origin) at 10 uM relative to control
T5 sequence (whole entry): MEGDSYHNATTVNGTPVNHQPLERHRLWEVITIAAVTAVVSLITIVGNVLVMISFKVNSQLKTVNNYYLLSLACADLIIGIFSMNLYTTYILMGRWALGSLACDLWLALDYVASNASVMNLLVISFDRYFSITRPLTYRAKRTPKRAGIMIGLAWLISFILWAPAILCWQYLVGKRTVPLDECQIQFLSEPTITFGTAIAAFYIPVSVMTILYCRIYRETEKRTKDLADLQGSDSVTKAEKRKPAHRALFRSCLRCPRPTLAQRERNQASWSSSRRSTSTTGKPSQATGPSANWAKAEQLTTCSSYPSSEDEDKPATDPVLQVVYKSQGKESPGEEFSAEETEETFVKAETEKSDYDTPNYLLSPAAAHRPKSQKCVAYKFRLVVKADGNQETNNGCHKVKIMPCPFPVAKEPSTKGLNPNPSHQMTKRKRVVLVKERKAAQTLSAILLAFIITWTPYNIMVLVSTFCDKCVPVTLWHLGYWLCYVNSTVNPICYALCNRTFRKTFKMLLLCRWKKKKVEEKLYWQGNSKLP

[10] = target: T6, Muscarinic acetylcholine receptor M1 (Homo sapiens) (UniProt P11229); experiment: Inhibition of [3H]pirenzepine from binding to M1 receptor (unknown origin) at 10 uM relative to control
T6 sequence (whole entry): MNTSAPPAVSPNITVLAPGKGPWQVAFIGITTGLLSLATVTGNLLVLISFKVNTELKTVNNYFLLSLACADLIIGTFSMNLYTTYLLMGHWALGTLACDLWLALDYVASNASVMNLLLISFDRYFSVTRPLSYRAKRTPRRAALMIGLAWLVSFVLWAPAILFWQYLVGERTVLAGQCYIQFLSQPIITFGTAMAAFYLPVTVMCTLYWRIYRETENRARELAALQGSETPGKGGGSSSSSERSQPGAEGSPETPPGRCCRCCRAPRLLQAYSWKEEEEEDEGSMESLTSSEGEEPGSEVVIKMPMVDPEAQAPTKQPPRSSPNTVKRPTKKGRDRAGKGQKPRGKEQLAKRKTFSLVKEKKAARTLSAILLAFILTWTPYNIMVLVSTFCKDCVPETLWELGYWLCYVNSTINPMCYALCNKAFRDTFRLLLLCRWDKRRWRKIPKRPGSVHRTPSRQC

[11] = Antagonist activity at 5-HT-induced 5-HT2B signaling in CHO cells by IP1 assay; details: Cricetulus griseus
[12] = target: 5-hydroxytryptamine receptor 5A (Homo sapiens) (UniProt P47898); experiment: Inhibition of [3H]LSD from binding to 5-HT5A receptor (unknown origin) at 10 uM relative to control
[13] = target: 5-hydroxytryptamine receptor 6 (Homo sapiens) (UniProt P50406); experiment: Inhibition of [3H]LSD from binding to 5-HT6 receptor (unknown origin) at 10 uM relative to control
[14] = target: 5-hydroxytryptamine receptor 4 (Homo sapiens) (UniProt Q13639); experiment: Inhibition of [3H]GR113808 from binding to 5-HT4E receptor (unknown origin) at 10 uM relative to control
[15] = target: 5-hydroxytryptamine receptor 2B (Homo sapiens) (UniProt P41595); experiment: Inhibition of [3H]mesulergine from binding to 5-HT2B receptor (unknown origin) at 10 uM relative to control
[16] = target: 5-hydroxytryptamine receptor 7 (Homo sapiens) (UniProt P34969); experiment: Inhibition of [3H]LSD from binding to 5-HT7 receptor (unknown origin) at 1 uM relative to control
[17] = target: T7, Muscarinic acetylcholine receptor M4 (Homo sapiens) (UniProt P08173); experiment: Inhibition of [3H]4-DAMP from binding to M4 receptor (unknown origin) at 10 uM relative to control
T7 sequence (whole entry): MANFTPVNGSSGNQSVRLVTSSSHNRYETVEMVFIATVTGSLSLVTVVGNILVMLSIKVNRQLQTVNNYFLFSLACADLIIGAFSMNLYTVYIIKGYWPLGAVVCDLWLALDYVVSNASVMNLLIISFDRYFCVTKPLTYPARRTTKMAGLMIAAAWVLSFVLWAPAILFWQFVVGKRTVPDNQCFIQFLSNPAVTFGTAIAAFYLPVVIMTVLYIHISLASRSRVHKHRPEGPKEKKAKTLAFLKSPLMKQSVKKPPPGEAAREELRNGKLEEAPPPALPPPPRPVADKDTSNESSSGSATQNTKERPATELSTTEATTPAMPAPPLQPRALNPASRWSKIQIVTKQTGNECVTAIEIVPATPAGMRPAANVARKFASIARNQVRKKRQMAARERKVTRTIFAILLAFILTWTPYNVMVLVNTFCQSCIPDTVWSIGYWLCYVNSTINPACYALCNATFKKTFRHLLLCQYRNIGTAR

[18] = target: Muscarinic acetylcholine receptor M3 (Homo sapiens) (UniProt P20309); experiment: Inhibition of [3H]4-DAMP from binding to M3 receptor (unknown origin) at 10 uM relative to control
Chain of Muscarinic acetylcholine receptor M3 (Homo sapiens) (P20309 whole entry, looked up): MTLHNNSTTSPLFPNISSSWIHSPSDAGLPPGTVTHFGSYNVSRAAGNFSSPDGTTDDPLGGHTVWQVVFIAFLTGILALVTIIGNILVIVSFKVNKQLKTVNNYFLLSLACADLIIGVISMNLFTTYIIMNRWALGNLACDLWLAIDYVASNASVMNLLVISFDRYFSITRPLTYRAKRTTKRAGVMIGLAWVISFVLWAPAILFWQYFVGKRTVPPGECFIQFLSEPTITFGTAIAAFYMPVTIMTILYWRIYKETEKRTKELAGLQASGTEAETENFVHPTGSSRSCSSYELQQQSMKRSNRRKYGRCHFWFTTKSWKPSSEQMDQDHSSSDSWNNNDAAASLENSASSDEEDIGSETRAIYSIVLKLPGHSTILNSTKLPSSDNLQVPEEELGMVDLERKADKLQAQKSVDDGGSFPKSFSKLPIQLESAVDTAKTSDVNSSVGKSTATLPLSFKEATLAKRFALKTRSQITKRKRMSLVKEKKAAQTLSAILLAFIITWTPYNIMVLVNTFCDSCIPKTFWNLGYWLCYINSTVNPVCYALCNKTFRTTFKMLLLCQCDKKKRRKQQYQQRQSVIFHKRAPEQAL

T1 sequence (P28223 whole entry): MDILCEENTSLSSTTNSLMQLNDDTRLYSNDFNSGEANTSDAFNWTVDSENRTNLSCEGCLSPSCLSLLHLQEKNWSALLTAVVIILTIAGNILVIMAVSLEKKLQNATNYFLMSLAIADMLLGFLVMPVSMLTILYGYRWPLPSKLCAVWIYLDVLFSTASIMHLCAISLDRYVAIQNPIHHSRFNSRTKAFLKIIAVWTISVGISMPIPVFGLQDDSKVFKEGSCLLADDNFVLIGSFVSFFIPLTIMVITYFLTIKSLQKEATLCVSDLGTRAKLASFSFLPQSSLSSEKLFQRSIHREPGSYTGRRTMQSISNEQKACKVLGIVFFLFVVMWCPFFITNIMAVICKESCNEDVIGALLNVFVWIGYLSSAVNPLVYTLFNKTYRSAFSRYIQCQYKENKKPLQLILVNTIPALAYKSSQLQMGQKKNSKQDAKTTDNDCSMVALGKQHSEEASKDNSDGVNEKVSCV
Chain of 5-hydroxytryptamine receptor 7 (Homo sapiens) (P34969 whole entry): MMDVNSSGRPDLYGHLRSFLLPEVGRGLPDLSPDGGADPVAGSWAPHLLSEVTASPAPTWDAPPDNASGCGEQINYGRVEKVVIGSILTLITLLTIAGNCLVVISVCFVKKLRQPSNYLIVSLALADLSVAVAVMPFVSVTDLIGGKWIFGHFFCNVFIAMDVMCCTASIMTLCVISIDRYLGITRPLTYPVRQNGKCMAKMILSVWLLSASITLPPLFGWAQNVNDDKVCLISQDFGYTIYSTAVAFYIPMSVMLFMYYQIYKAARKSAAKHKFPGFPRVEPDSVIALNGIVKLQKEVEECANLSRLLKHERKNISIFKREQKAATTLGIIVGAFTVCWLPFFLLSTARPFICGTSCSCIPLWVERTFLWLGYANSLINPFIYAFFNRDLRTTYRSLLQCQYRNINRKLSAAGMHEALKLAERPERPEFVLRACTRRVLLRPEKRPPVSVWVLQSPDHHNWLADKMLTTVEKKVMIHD
Chain of 5-hydroxytryptamine receptor 6 (Homo sapiens) (P50406 whole entry): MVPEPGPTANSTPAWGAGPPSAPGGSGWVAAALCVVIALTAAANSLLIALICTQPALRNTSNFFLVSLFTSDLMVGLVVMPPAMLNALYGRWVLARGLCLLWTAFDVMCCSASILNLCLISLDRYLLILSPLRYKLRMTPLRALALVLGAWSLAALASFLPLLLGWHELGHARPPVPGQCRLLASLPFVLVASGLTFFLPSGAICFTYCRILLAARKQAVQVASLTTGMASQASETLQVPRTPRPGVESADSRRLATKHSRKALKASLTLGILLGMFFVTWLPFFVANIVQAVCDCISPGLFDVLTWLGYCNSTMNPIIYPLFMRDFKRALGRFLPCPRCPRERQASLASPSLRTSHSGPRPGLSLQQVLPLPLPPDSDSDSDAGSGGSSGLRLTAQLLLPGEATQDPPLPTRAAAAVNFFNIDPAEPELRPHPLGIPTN
Chain of 5-hydroxytryptamine receptor 4 (Homo sapiens) (Q13639 whole entry): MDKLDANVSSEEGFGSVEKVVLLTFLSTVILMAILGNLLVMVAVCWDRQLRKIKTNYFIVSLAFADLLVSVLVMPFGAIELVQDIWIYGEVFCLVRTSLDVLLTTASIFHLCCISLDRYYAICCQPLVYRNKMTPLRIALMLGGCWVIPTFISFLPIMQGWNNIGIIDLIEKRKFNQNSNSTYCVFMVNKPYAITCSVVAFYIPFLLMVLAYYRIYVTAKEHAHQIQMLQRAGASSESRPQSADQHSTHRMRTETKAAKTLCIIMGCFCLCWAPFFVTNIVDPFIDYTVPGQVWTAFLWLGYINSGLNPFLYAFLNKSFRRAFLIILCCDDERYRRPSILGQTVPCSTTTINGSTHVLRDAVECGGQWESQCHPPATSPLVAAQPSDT
Chain of 5-hydroxytryptamine receptor 5A (Homo sapiens) (P47898 whole entry): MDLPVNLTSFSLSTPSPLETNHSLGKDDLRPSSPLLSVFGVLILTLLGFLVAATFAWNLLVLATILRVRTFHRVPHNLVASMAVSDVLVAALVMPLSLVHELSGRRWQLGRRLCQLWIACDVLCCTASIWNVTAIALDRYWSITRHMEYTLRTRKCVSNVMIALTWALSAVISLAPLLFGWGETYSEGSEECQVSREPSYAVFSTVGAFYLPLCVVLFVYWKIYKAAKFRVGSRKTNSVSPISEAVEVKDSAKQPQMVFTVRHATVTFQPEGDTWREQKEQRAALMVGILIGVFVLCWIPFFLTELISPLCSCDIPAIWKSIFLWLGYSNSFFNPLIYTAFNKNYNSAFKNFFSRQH
Chain of 5-hydroxytryptamine receptor 2B (Homo sapiens) (P41595 whole entry): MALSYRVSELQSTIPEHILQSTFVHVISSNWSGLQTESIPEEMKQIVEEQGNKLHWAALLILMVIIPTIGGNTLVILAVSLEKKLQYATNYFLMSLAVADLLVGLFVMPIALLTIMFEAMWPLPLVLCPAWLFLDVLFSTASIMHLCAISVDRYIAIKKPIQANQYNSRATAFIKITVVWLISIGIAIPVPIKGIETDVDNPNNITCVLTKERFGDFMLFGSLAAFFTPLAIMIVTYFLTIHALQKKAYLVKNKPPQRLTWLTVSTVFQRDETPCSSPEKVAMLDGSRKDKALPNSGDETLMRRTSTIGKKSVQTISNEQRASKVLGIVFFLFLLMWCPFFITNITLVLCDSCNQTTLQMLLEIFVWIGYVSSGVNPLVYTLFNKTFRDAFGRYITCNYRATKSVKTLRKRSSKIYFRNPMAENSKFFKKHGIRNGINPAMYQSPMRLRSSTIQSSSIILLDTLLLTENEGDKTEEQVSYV

| Compound | IC50 [1] | IC50 [2] | also measured |
| --- | --- | --- | --- |
| O=C1C[C@]2(CN3CCC2CC3)Oc2cc(O)ccc21 | > 100 µM | 2.5 µM |  |
| O=C1C[C@@]2(CN3CCC2CC3)Oc2c1ccc1ccccc21 | > 100 µM | 50 µM |  |
| O=C1CC2(CN3CCC2CC3)Oc2c1ccc1ccccc21 (racemic) | 20 µM | 0.18 µM |  |
| O=C1C[C@]2(CN3CCC2CC3)Oc2ccccc21 | > 10 µM | > 10 µM |  |
| O=C1C[C@]2(CN3CCC2CC3)Oc2cc(Br)ccc21 | 15 µM | 2.3 µM |  |
| O=C1C[C@]2(CN3CCC2CC3)Oc2cc(OCC3CC3)ccc21 | > 100 µM | 1.5 µM |  |
| COc1ccc2c(c1)C(=O)C[C@]1(CN3CCC1CC3)O2 | > 10 µM | > 10 µM |  |
| COc1ccc2c(c1)O[C@]1(CC2=O)CN2CCC1CC2 | > 30 µM | 0.52 µM | EC50 [3]: > 30 µM |
| O=C1NC2(CN3CCC2CC3)Nc2ccccc21 (stereo not given) |  |  | inhibition [4]: > 50%; inhibition [5]: > 50% |
| O=C1C[C@]2(CN3CCC2CC3)Oc2c1ccc1ccccc21 | 50 µM | 0.095 µM | inhibition [6]: 92%; inhibition [7]: 31%; inhibition (Homo sapiens): 85%; inhibition [8]: 57%; inhibition [9]: 69%; inhibition [10]: 67%; IC50 [11]: 0.135 µM; inhibition [12]: 64%; inhibition [13]: 57%; inhibition [14]: 42%; inhibition [15]: 99%; inhibition [16]: 67%; inhibition [17]: 67%; inhibition [18]: 27% |
| O=C1C[C@]2(CN3CCC2CC3)Oc2ccc(Br)cc21 | > 10 µM | > 10 µM |  |
| COc1cccc2c1C(=O)C[C@]1(CN3CCC1CC3)O2 | > 100 µM | 5 µM |  |
| Cc1ccc2c(c1)O[C@]1(CC2=O)CN2CCC1CC2 | > 100 µM | 2.5 µM |  |
| O=C1C[C@]2(CN3CCC2CC3)Oc2ccc(F)cc21 | > 10 µM | > 10 µM |  |
| O=C1C[C@]2(CN3CCC2CC3)Oc2cc3ccccc3cc21 | 50 µM | > 100 µM |  |
